The text below walks through data of patent US11548860B2, “Pharmacophores, compounds and methods having application in the treatment of cancer through inhibition of CYP17A1 and CYP19A1” (MANGOSUTHU UNIVERSITY OF TECHNOLOGY, priority 2015, dated 2023).

Data set [1] deals with CYP17A1. The following applies: actual (literature) activity of training/test set compounds, cited from earlier work; for IC50: unit nM.
Data set [2] concerns the target CYP17A1 (Homo sapiens (Human), UniProt P05093). Briefly: CYP17A1 inhibition, CYP17A1 bactosomes, progesterone substrate, LC-MS/MS. It counts as biochemical. The following applies: Table 2.
Procedure: CYP17A1 inhibition was measured using 20 pmol/ml CYP17A1 bactosomes (Cypex, Dundee, UK) and 0.1 μM progesterone as a substrate and 1 mM NADPH in 50 mM potassium phosphate buffer pH 7.4 containing 5 mM magnesium chloride. Inhibitors were dissolved in DMSO and serially diluted in seven ½ log steps, final concentrations ranging from 50 μA to 50 nM. Reaction volume was 100 μl and final DMSO concentration was 1% (v/v). Reactions were started by the addition of NADPH and incubated at 37° C. for 20 minutes with shaking at 1800 rpm on a Bioshake IQ (Q-Instruments, Jena, Germany). Reactions were terminated by the addition of 200 μl methanol containing 1 μM tolbutamide as an internal standard.
Data set [3] in a line: Solubility in DMSO. It counts as physicochemical.
Data set [4] in a line: Toxicity studies on the molecules in Table 2.
Data set [5] relates to CYP1A2, CYP2C9, CYP2C19, CYP2D6, and CYP3A4. Briefly: Summary of inhibition of metabolic CYP450 isoforms (5 CYP panel). The following applies: Table 2. It counts as in vitro ADME, human.
Data set [6] has as its target CYP19A1 (Homo sapiens (Human), UniProt P11511). Description: CYP19A1 inhibition, CYP19/MFC High Throughput Inhibitor Screen Kit, fluorescence. It counts as biochemical. The following applies: Table 2. The procedure: Test compounds and control inhibitors were prepared as stocks in either Acetonitrile or DMSO from the solid compound. Compounds were serially diluted in ½ log steps in the same solvent. CYP19A1 inhibition experiments were performed using the CYP19/MFC High Throughput Inhibitor Screen Kit (Corning). Test compounds were tested in seven concentrations: […] CYP19A1 reactions were performed in black 96 well-plates (Greiner) according to the manufacturer's instructions. […] Final organic solvent concentrations were either 4% (v/v) acetonitrile or 0.5% (v/v) Dimethyl sulfoxide. The plates were covered with self-adhesive film lids and incubated for 10 minutes at 37° C. Reactions were terminated by the addition of 75 μl Stop Solution (100 mM Tris base in acetonitrile: MilliQ water (80:20). […] The CYP activities for each test compound/positive control inhibitor at each concentration were converted to % of control activity (CA). The LC-MS/MS peak responses (CYP metabolite peak area/internal standard peak area) for each test compound or positive control inhibitor were used and the response for each sample was expressed as a percentage of an uninhibited control (DMSO incubation).

CYP17A1 (Homo sapiens (Human), UniProt P05093), sequence (P05093 whole entry): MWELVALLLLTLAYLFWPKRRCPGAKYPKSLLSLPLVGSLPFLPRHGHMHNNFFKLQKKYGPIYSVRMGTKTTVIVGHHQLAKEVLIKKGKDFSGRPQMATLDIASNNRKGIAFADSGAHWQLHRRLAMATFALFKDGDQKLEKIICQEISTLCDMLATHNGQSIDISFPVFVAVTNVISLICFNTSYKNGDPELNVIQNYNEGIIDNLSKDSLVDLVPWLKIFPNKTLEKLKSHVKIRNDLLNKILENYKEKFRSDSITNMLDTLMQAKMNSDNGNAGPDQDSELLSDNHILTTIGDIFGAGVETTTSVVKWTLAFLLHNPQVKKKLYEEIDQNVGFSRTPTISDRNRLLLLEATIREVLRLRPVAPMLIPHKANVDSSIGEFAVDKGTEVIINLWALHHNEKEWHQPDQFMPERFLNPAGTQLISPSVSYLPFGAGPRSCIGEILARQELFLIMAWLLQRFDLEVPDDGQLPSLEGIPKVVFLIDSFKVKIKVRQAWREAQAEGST
CYP19A1, sequence (P11511 whole entry): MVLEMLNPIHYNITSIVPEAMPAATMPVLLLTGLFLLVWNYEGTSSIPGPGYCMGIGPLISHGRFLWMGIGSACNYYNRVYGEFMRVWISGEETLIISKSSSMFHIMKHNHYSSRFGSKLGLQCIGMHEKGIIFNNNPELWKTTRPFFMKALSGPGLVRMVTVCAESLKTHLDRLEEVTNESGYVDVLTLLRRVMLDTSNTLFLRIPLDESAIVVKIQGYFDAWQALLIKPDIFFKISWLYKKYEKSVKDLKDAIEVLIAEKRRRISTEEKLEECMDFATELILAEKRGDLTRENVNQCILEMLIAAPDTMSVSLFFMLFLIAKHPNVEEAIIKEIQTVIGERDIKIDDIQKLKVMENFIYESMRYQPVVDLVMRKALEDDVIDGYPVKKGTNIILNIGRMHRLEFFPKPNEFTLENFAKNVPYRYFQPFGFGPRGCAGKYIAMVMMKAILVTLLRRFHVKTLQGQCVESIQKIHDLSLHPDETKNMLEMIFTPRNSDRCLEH

On to `CC(=O)Nc1cccc(-c2ccc(C(C)(O)c3c[nH]cn3)cc2)c1` (racemic) [32 [12]], for which, in data set [1], the negative-log IC50 (pIC50) is 7.420 and the IC50 was 38 nM.

As for `Oc1ccc(-c2ccc(Cc3ccncc3)cc2)cc1O` [9 [9]], in data set [1], the pIC50 is recorded as 7.280 and the concentration for half-maximal inhibition (IC50) was 52 nM.

On to `CC(C)=C(c1ccncc1)c1ccc(-c2cccc(O)c2)cc1` [13 [2]], for which, in data set [1], the pIC50 is given as 7.250 and the IC50 was 56 nM.

`CNC(=O)c1ccc2cc(C3CCn4cncc43)ccc2c1` (racemic) [3d [11]]: in data set [1], the pIC50 was 7.890 and the IC50 is 13 nM.

With `CCc1ccc(NC(=O)c2cc(C(=O)c3cc(OC)ccc3O)coc2=N)cc1` [Compound 1, N-(4-ethylphenyl)-5-(2-hydroxy-5-methoxybenzoyl)-2-imino-2H-pyran-3-carboxamide], in data set [2], the “inhibitory potency of CYP17A1, level in words” value (“inhibitory potency of CYP17A1” below) is recorded as “micromolar levels”. In addition, the “Soluble in DMSO” value in data set [3] is “Yes”. In data set [4], the safety profile entry is given as “reasonably good safety profiles”. For the same compound, in data set [5], the “inhibition of various CYP450 isoforms (drug-drug interaction)” value (“inhibition of various CYP450 isoforms” for short) is on record as “inhibit various CYP450 isoforms”.

As for `CNC(=O)c1ccc2cc([C@@]3(O)CCn4cncc43)ccc2c1` [TAK700], in data set [1], the negative logarithm of the IC50 (pIC50) is recorded as 7.550 and the IC50 was 28 nM.

For `CNC(=O)c1cccc(-c2ccc(C(O)(c3c[nH]cn3)C(C)C)cc2)c1` (centres unmarked) [22 [12]], in data set [1], the pIC50 is 7.360 and the IC50 was 44 nM.

In the case of `COc1ccc(-c2ccc3c(c2)CCCC3(O)c2ccncc2)cc1F` (racemic) [16 [9]], in data set [1], the pIC50 was 5.480 and the IC50 was 3340 nM.

As for `CNC(=O)c1ccc2cc(C(O)(c3cnc[nH]3)C(C)C)ccc2c1` (centres unmarked) [1 [11]], in data set [1], the pIC50 is 7.800 and the IC50 is 16 nM.

Take `CC(C)C(O)(c1cccc(-c2ccc(F)cc2)c1)c1c[nH]cn1` (racemic) [13 [12]]: in data set [1], the pIC50 is given as 7.720 and the IC50 was 19 nM.

`CC(c1ccc(-c2ccc(F)cc2)cc1)n1ccnc1` (centres unmarked) [4 [9], 4-fluoro-4-[1-(1H-imidazolyl)ethyl]biphenyl]: in data set [1], the pIC50 is given as 6.610 and the IC50 is 248 nM.

Turning to `c1ccc(-c2ccc3c(c2)CCC3n2ccnc2)cc1` (racemic) [5ay [7]], in data set [1], the pIC50 is recorded as 6.620 and the concentration for half-maximal inhibition (IC50) is 240 nM.

For `CCC(O)(c1ccc(-c2cccc(NC(C)=O)c2)cc1)c1c[nH]cn1` (racemic) [33 [12]], in data set [1], the pIC50 is on record as 7.400 and the IC50 is 40 nM.

With `Oc1ccc(-c2ccc(Cc3ccncc3)cc2)cc1` [30 [10]], in data set [1], the pIC50 is 6.630 and the IC50 was 236 nM.

For the compound `Cl.Fc1ccc(-c2ccc3c(c2)CCC3c2cccnc2)cc1` (centres unmarked) [15 [13]], in data set [1], the negative logarithm of the IC50 (pIC50) is reported as 4.700 and the half-inhibitory concentration (IC50) was 20000 nM.

Turning to `CC(C)C(O)(c1cccc(-c2ccc(Cl)cc2)c1)c1c[nH]cn1` (centres unmarked) [14 [12]], in data set [1], the pIC50 was 7.310 and the concentration for half-maximal inhibition (IC50) is 49 nM.

Regarding `Oc1cccc(-c2ccc(Cc3ccncc3)cc2)c1` [3i [11]], in data set [1], the pIC50 is listed as 7.060 and the IC50 is 88 nM.

For `CC(C)=C(c1ccncc1)c1ccc(-c2ccc(O)c(O)c2)cc1` [16 [2]], in data set [1], the pIC50 is listed as 7.430 and the IC50 was 37 nM.

Take `COc1ccc(-c2ccc(C(O)(c3c[nH]cn3)C(C)C)cc2)cc1` (racemic) [8 [12]]: in data set [1], the pIC50 is reported as 7.270 and the IC50 was 54 nM.

On to `CC(C)C(O)(c1ccc(-c2ccccc2)cc1)c1c[nH]cn1` (racemic) [7 [12]], for which, in data set [1], the pIC50 is 7.480 and the IC50 is 33 nM.

Consider `CC(=O)Nc1cccc(-c2ccc(C(O)(c3c[nH]cn3)C(C)C)cc2)c1` (centres unmarked) [17 [12]], for which, in data set [1], the pIC50 was 7.620 and the IC50 was 24 nM.

For `CC(=O)Nc1cccc(-c2ccc(C(O)(c3c[nH]cn3)C3CC3)cc2)c1` (racemic) [34 [12]], in data set [1], the pIC50 is given as 7.350 and the IC50 is 45 nM.

For the compound `CC(c1ccc(-c2ccsc2)cc1)n1ccnc1` (racemic) [12 [9]], in data set [1], the pIC50 was 6.050 and the IC50 was 876 nM.

In the case of `O=C1COc2cc(NCc3cccc(C(=O)Nc4ccccc4O)c3)ccc2N1` [Compound 11, N-(2-hydroxyphenyl)-3-{[(3-oxo-3,4-dihydro-2H-1,4-benzoxazin-7-yl)amino]methyl}benzamide], the “IC50 values against CYP19A1, potency level in words” value in data set [6] is “sub-micromolar inhibitory potency levels”. Also, the “Soluble in DMSO” value in data set [3] was “Yes”. Further, the safety profile entry in data set [4] is “reasonably good safety profiles”. The “inhibition of various CYP450 isoforms” value in data set [5] is “inhibit various CYP450 isoforms”.

For the compound `Oc1ccc(-c2ccc(Cc3ccncc3)cc2)cc1F` [5ax [7]], in data set [1], the pIC50 is reported as 6.770 and the IC50 was 170 nM.

Turning to `COc1ccc(-c2ccc(Cc3ccncc3)cc2)cc1OC` [9a [9]], in data set [1], the pIC50 was 7.280 and the IC50 was 52 nM.

With `CC(=O)Nc1cccc(-c2ccc(C(O)(c3c[nH]cn3)C(C)C)cc2)n1` (centres unmarked) [26 [12]], in data set [1], the pIC50 was 7.440 and the IC50 is 36 nM.

Turning to `O=C(Nc1ccccc1O)c1ccc(Oc2cccc(C(=O)Nc3ccccc3O)c2)cc1` [Compound 9, N-(2-hydroxyphenyl)-4-{3-[(2-hydroxyphenyl)carbamoyl]phenoxyl}benzamide], the “inhibitory potency of CYP17A1” value in data set [2] was “micromolar levels”. Further, in data set [3], the “Soluble in DMSO” value was “Yes”. In addition, the safety profile result in data set [4] was “excellent safety profiles”.

On to `CNC(=O)Nc1cccc(-c2ccc(C(O)(c3c[nH]cn3)C(C)C)cc2)c1` (centres unmarked) [24 [12]], for which, in data set [1], the pIC50 is 7.680 and the IC50 was 21 nM.

As to `CC(C)C(O)(c1ccc(-c2ccc(Cl)cc2)cc1)c1c[nH]cn1` (racemic) [16 [12]], in data set [1], the pIC50 was 7.550 and the IC50 was 28 nM.

For `O=C(NC1CC1)c1ccc2cc(C3(O)CCn4cncc43)ccc2c1` (racemic) [5bx [7]], in data set [1], the pIC50 is given as 6.600 and the IC50 is 250 nM.

As for `CC(C)=C(c1ccncc1)c1ccc(-c2ccc(N)c(N)c2)cc1` [22 [2]], in data set [1], the pIC50 is 7.120 and the IC50 was 75 nM.

Consider `Brc1ccc(Cc2ccncc2)cc1` [3g [11]], for which, in data set [1], the pIC50 is 6.400 and the 50% inhibitory concentration (IC50) was 400 nM.

`O=C1COc2cc(NCc3cccc(C(=O)Nc4cccnc4)c3)c(O)cc2N1` [Compound 8, 3-{[(6-hydroxy-3-oxo-3,4-dihydro-2H-1,4-benzoxazin-7-yl)amino]methyl}-N-(pyridin-3-yl)benzamide]: the “IC50 values against CYP19A1, potency level in words” value in data set [6] is recorded as “sub-micromolar inhibitory potency levels”. Moreover, the “Soluble in DMSO” value in data set [3] is recorded as “Yes”. Besides, the safety profile entry in data set [4] is reported as “excellent safety profiles”.

Regarding `Br.Oc1ccc(-c2ccc3c(c2)CCCC3c2ccncc2)cc1F` (centres unmarked) [20 [13]], in data set [1], the pIC50 was 7.190 and the IC50 is 64 nM.

For the compound `NC(=O)c1ccc2cc(C3(O)CCn4cncc43)ccc2c1` (racemic) [3b [11]], in data set [1], the pIC50 is given as 7.540 and the half-maximal inhibitory concentration (IC50) was 29 nM.

Take `COC(C)C(=O)Nc1cccc(NC(C(N)=O)c2ccccc2)c1` (centres unmarked) [Compound 5, N-(3-{[carbamoyl(phenyl)methyl]amino}phenyl)-2-methoxypropanamide]: the “Soluble in DMSO” value in data set [3] is reported as “Yes”. The safety profile result in data set [4] is given as “excellent safety profiles”.

With `COc1ccc2cc(-c3ccc(Cc4ccncc4)cc3)ccc2c1` [13 [9]], in data set [1], the pIC50 was 5.750 and the IC50 was 1790 nM.

On to `CC(C)=C(c1ccncc1)c1ccc(-c2ccc(O)c(F)c2)cc1` [15 [2]], for which, in data set [1], the pIC50 is 7.120 and the IC50 was 75 nM.

Consider `CC(C)C(O)(c1ccc(-c2ccc(F)cc2)cc1)c1c[nH]cn1` (racemic) [15 [12]], for which, in data set [1], the pIC50 is on record as 7.570 and the IC50 was 27 nM.

As for `O=C(CSc1nnc(-c2c[nH]c3ccccc23)n1Cc1ccco1)NCc1ccccc1Cl` [Compound 2, N-[(2-chlorophenyl)methyl]-2-({4-[(furan-2-yl)methyl]-5-(1H-indol-3-yl)-4H-1,2,4-triazol-3-yl}sulfanyl)acetamide], the “inhibitory potency of CYP17A1” value in data set [2] is on record as “micromolar levels”. In addition, the “Soluble in DMSO” value in data set [3] is “Yes”. The safety profile entry in data set [4] is given as “reasonably good safety profiles”. Also, the “inhibition of various CYP450 isoforms” value in data set [5] is listed as “inhibit various CYP450 isoforms”.

With `CCNC(=O)c1ccc2cc(C3(O)CCn4cncc43)ccc2c1` (racemic) [25 [2]], in data set [1], the negative-log IC50 (pIC50) was 6.730 and the IC50 was 186 nM.
